The subject of experiment [1] is PC3 grade IV prostate carcinoma. Kind of experiment: LDH cytotoxicity assay, PC3 cells. The class given is cell-based. As to conditions: Homo sapiens. The source says: (§1) In the study, […] human cancer and normal cell lines were used. They were grouped as follows: prostate panel (prostate carcinoma Du145, derived from the metastatic site: brain, ATCC HTB-81; grade IV prostate carcinoma, PC3, derived from the metastatic site: bone, ATCC CRL-1435; prostate epithelial cells PNT2, ECACC 95012613), gastrointestinal panel (colorectal adenocarcinomas Caco2, ATCC HTB-37, and HT29, ATCC HTB-38; hepatocellular carcinoma HepG2, ATCC HB-8065), thyroid panel (follicular thyroid carcinoma FTC133, ECACC 94060901; undifferentiated thyroid carcinoma 8505C, ECACC 94090184). Cells were grown at 37 °C in a 5% CO2 atmosphere, with relative humidity, with culture medium DMEM/F12 (PC3, PNT2, FTC133, 8505C, HT29, and HepG2), DMEM low glucose (Du145), MEM with NEAA (Caco-2), supplemented with 10% fetal bovine serum (FBS), and appropriate antibiotics. Cells were seeded in 96-well plates (1.5 × 10^4 cells/well) and kept for 24 and 48 h. Subsequently, the culture medium was replaced with a fresh medium containing different concentrations of the tested substances from 4 to 50 µg/mL and the cells were incubated for 24 and 48 h. As a reference drug, doxorubicin was used. Cell viability was examined using the LDH assay, as previously described. The absorbance was measured at 490 nm (the reference wavelength 600 nm) with a Biotek Synergy microplate reader. Each experiment was performed in triplicate. Cytotoxicity of the samples was measured using the formula: %cytotoxicity=Asample−Aspont/Amax−Aspont×100 where: • Asample is the absorbance value for cells treated with the tested substances • Aspont is the value for spontaneous LDH release • Amax the value in cells lysed in the presence of Triton X100 • The half-maximal effective concentration value IC50, defined as the substance concentration necessary to obtain 50% of dead cells, was determined.
(§2) In the study evaluating optimization extraction conditions, the outlying values of rapanone amount in each set of parameters were removed. Thirty-two outlier values were determined using “Extreme Outlier” software (MP System Co., Kraków, Poland), with an algorithm implemented by Shoemaker and based on a robust technique proposed by Tukey. The ANOVA procedure was used to assess the impact of changing individual parameters on the amount of rapanone obtained in various extraction systems. The same statistical procedure was used to determine the regression coefficients of the primary parameters in the respective multinomial models (describing the relationship between the amount of rapanone and the experimental conditions) and to establish the statistical significance of these coefficients. […] The results with the highest number of differences were chosen as representing the combinations of parameters, (i.e., the particular variants of experimental systems), that were used giving the highest efficacy of the extraction process. IC50 values in cytotoxicity analysis were estimated using GraphPad 5 Prism. A comparison of the means in a cytotoxicity analysis was performed using one-way ANOVA followed by a posthoc Tukey test.

The subject of experiment [2] is Du145 prostate carcinoma. Kind of experiment: LDH cytotoxicity assay, Du145 cells. The class given is cell-based, human. To be noted: for mean percentage of dead Du145 cells: 10 μg/mL, 24 h of incubation; for IC50: Homo sapiens, DU-145, LDH assay.
Description: as §1, §2

The test system of experiment [3] is PNT2 prostate epithelial cells. Put plainly: LDH cytotoxicity assay, PNT2 cells. The class given is cell-based, human. As to conditions: for mean percentage of dead PNT2 cells: 10 μg/mL, 24 h of incubation; for IC50: Homo sapiens, PNT2 normal prostate epithelial cells, LDH assay.
Description: as §1, §2

Experiment [4] relates to Caco-2 colorectal adenocarcinoma. Kind of experiment: LDH cytotoxicity assay, Caco-2 cells. The class given is cell-based, human. To be noted: for IC50: Homo sapiens.
Description: as §1, §2

Experiment [5] relates to HT29 colorectal adenocarcinoma. Put plainly: LDH cytotoxicity assay, HT29 cells. As to conditions: Homo sapiens. The class given is cell-based.
Description: as §1, §2

Experiment [6] relates to undifferentiated thyroid carcinoma 8505C. Put plainly: LDH cytotoxicity assay, 8505C cells. The class given is cell-based. To be noted: Homo sapiens.
Description: as §1, §2

The subject of experiment [7] is PC3. To be noted: cited from earlier work.
In experiment [8] the test system is HepG2 hepatocellular carcinoma. Kind of experiment: LDH cytotoxicity assay, HepG2 cells. The class given is cell-based. To be noted: Homo sapiens.
Description: as §1
(§3) In the study evaluating optimization extraction conditions, the outlying values of rapanone amount in each set of parameters were removed. Thirty-two outlier values were determined using “Extreme Outlier” software (MP System Co., Kraków, Poland), with an algorithm implemented by Shoemaker and based on a robust technique proposed by Tukey. The ANOVA procedure was used to assess the impact of changing individual parameters on the amount of rapanone obtained in various extraction systems. The same statistical procedure was used to determine the regression coefficients of the primary parameters in the respective multinomial models (describing the relationship between the amount of rapanone and the experimental conditions) and to establish the statistical significance of these coefficients. […]

The subject of experiment [9] is follicular thyroid carcinoma FTC133. Put plainly: LDH cytotoxicity assay, FTC133 cells. The class given is cell-based. As to conditions: Homo sapiens.
Description: as §1, §3

Experiment [10] concerns Du145. Also on record: method as in earlier work. To be noted: castration-resistant prostate cancer cells Du145; read-out: IC50 inhibition of proliferation, Du145; cited from earlier work.
The subject of experiment [11] is HT29 cells. As to conditions: cited from earlier work.
Details of experiment [12]: method as in PMID 26252009. As to conditions: EZ-CyTox kit, cell line not stated, cited from earlier work.
[13] abbreviates: PC-3, PC3, 24 h incubation, read-out: IC50 PC3 24 h.
[14] abbreviates: Du145, 24 h incubation, read-out: IC50 Du145 24 h.
The mark [15] stands for this setting: 24 h incubation, read-out: IC50 PNT2 24 h.
Setting [16] is: Caco-2, 24 h, Caco-2, 24 h incubation, read-out: IC50 Caco-2 24 h.
Setting [17] is: HT-29, HT29, 24 h incubation, read-out: IC50 HT29 24 h.
The mark [18] stands for this setting: 24 h incubation, read-out: IC50 8505C 24 h.
The mark [19] stands for this setting: PC-3, PC3, 48 h incubation, read-out: IC50 PC3 48 h.
Where [20] appears, read: Du145, 48 h incubation, read-out: IC50 Du145 48 h.
[21] abbreviates: 48 h incubation, read-out: IC50 PNT2 48 h.
Where [22] appears, read: Caco-2, 48 h, Caco-2, 48 h incubation, read-out: IC50 Caco-2 48 h.
The mark [23] stands for this setting: HT-29, HT29, 48 h incubation, read-out: IC50 HT29 48 h.
[24] abbreviates: HepG2, 24 h incubation, read-out: IC50 HepG2 24 h.
Setting [25] is: HepG2, 48 h incubation, read-out: IC50 HepG2 48 h.
[26] abbreviates: FTC-133, FTC133, 24 h incubation, read-out: IC50 FTC133 24 h.
Where [27] appears, read: FTC-133, FTC133, 48 h incubation, read-out: IC50 FTC133 48 h.
Where [28] appears, read: 48 h incubation, read-out: IC50 8505C 48 h.

In brackets after ≈: the same amount, converted by molar mass. Like-named read-outs stand apart in the source and are kept apart here.

Take `COc1cccc2c1C(=O)c1c(O)c3c(c(O)c1C2=O)C[C@@](O)(C(=O)CO)C[C@@H]3O[C@H]1C[C@H](N)[C@H](O)[C@H](C)O1` [Doxorubicin]: the IC50 is more than 50 µg/mL in experiment [1] (setting [13]); 3.18 µg/mL in experiment [2] (setting [14]); 1.38 µg/mL in experiment [3] (setting [15]); 3.44 µg/mL in [4] (setting [16]); 1.53 µg/mL in [5] (setting [17]); more than 40 µg/mL in experiment [6] (setting [18]). Further, the “mean percentage of dead Du145 cells” value in experiment [2] was 88.38%. Further, the “mean percentage of dead PNT2 cells” value in experiment [3] turned out to be 99.21%. Besides, the “times lower activity towards PC3 than towards Du145” value in [7] (doxorubicin, PC3 vs Du145) is listed as “about 20”.

On to `CCCCCCCCCCCC1=C(O)C(=O)C=C(O)C1=O` [Embelin], for which the IC50 in experiment [1] (setting [13]) stood at 9.27 µg/mL; in [1] (setting [19]), 5.24 µg/mL; in experiment [2] (setting [14]) it was 8.02 µg/mL; in [2] (setting [20]), 4.18 µg/mL; in [3] (setting [15]) it was 10.1 µg/mL; in [3] (setting [21]), 4.61 µg/mL. The IC50 in [4] (setting [16]) is 6.12 µg/mL; in experiment [4] (setting [22]), 3.37 µg/mL; in [5] (setting [17]) it was 24.7 µg/mL; in experiment [5] (setting [23]) it was 13.7 µg/mL; in [8] (setting [24]), 16 µg/mL; in experiment [8] (setting [25]), 6.77 µg/mL. Besides, the IC50 is 10.5 µg/mL in [9] (setting [26]); 6.48 µg/mL in experiment [9] (setting [27]); 18.9 µg/mL in experiment [6] (setting [18]); 13.8 µg/mL in [6] (setting [28]); 13.6 µM in experiment [7] (castration-resistant prostate cancer cells PC3, read-out: IC50 inhibition of proliferation, PC3); 21.3 µM in experiment [10]. Further, the IC50 is more than 200 µM in experiment [12] (24 h, read-out: IC50 after 24 h (Park et al.)) and 91.6 µM in experiment [12] (48 h, read-out: IC50 after 48 h (Park et al.)). Further, the “mean percentage of dead Du145 cells” value in experiment [2] came out at 61.67%. Also, the “mean percentage of dead PNT2 cells” value in experiment [3] is 49.00%. Also, the “IC50 in HT29 cells (Sumalatha)” value in [11] (HT29) is listed as 35 µg/mL (≈ 119 µM).

As to `CCCCCCCCCCCCCC1=C(O)C(=O)C=C(O)C1=O` [Rapanone], the IC50 in experiment [1] (setting [13]) came to 6.5 µg/mL; in experiment [1] (setting [19]) it was 4.92 µg/mL; in [2] (setting [14]) it was 7.68 µg/mL; in experiment [2] (setting [20]), 5.07 µg/mL; in experiment [3] (setting [15]), 16.7 µg/mL; in experiment [3] (setting [21]), 12.7 µg/mL. Further, the IC50 amounted to 8.76 µg/mL in experiment [4] (setting [16]); 5.66 µg/mL in experiment [4] (setting [22]); 16.9 µg/mL in experiment [5] (setting [17]); 11.7 µg/mL in experiment [5] (setting [23]); 36.3 µg/mL in experiment [8] (setting [24]); 16.7 µg/mL in experiment [8] (setting [25]). Also, the IC50 in experiment [9] (setting [26]) is 6.01 µg/mL; in [9] (setting [27]), 4.42 µg/mL; in [6] (setting [18]) it was 7.84 µg/mL; in [6] (setting [28]), 5.5 µg/mL; in [11] (HT29 (by context), read-out: IC50 reported by Cordero et al.), 29.4 µM. For the same compound, the “mean percentage of dead Du145 cells” value in [2] is reported as 82.33%. Also, the “mean percentage of dead PNT2 cells” value in experiment [3] was 9.30%. In experiment [4] (Caco-2, 24 h incubation), the “IC50 Caco-2 24 h” value was 8.79 µg/mL. Besides, in experiment [11] (HT29 (by context), 29.4 μM converted to μg/mL), the “IC50 reported by Cordero et al., converted” value was 9.3 µg/mL (≈ 28.8 µM).
